# Assay results as given in patent US8450352B2, “Thiazole compounds and their use for inhibiting phosphodiesterase 4, TNF-α, and IL-4” (Otsuka Pharmaceutical Co., Ltd., priority 2004, dated 2013).
# pIC50: −log10 of the molar value.
# Molecular target: T1, human PDE4D (HPDE4D) (Homo sapiens, UniProt Q08499)
# T1 construct: made in house; host or cells: COS-7 cells (African green monkey kidney), transient transfection; soluble supernatant of the homogenate
# Assay: Confirmatory test for phosphodiesterase (PDE) 4 inhibitory activity
# Type: biochemical
# Settings: concentration that inhibits the PDE4 activity by 50%; PDE4D enzyme solution from transfected COS-7 cells, [3H]cAMP substrate
# Excerpt: Confirmatory Test for Phosphodiesterase (PDE) 4 Inhibitory Activity
# (1) Mass Preparation of Plasmids
# Plasmids containing genes coding for human PDE4D (HPDE4D) (stored in Otsuka America Pharmaceutical, Inc., Maryland Research Laboratories) were transformed into Escherichia coli, and mass cultured. The plasmids were then purified using EndoFree™ Plasmid Mix Kit (Qiagen).
# (2) Mass expression and purification of PDE4D
# African green monkey kidney-derived COS-7 cells (RCB 0539) were subcultured in a DMEM medium containing 100 units/ml penicillin, […] streptomycin and 10% FBS. The plasmids prepared in (1) were transfected into the cells, using LipofectAMINE™ 2000 Reagent (hereinafter referred to as “LF2000”, a product of Invitroge), according to the attached protocol. For comparison, pcDNA3.1 was transfected as a control vector. The COS-7 cells were inoculated into 10 cm diameter petri dishes on the day before transfection, so that the cells reached 90% confluence on the day of transfection. Twelve micrograms of the plasmids diluted with 0.9 ml of OPTI-MEM I (Invitrogen) (a plasmid solution; Solution A) and 30 μl of LF2000 diluted with 0.9 ml of OPTI-MEM I (a LF2000 solution; Solution B) were prepared per petri dish, and allowed to stand at room temperature for 5 minutes. Solutions A and B were then mixed together and allowed to stand at room temperature for 20 minutes. The mixture was added to the cultured cells, and incubation was performed overnight at 37° C. in an atmosphere of 5% CO2. The culture medium was changed on the following day, incubation was continued overnight, and the cells were collected by the following procedure. First, the cells were washed once with PBS (Sigma), and 2 ml of Trypsin-EDTA solution (Sigma) was added per petri dish, spread over the dish and removed. The cells were then allowed to stand at 37° C. for 2 to 3 minutes, separated from the petri dish and suspended in a medium. The suspension was placed in a centrifuge tube, and centrifuged at 200×g and 4° C. for 5 minutes. The supernatant was then removed. The cells were further washed with PBS and stored at −80° C. A KHEM buffer (50 mM Hepes, 50 mM KCl, 10 mM EGTA, 1.92 mM MgCl2, pH 7.2) containing 1 mM DTT, 40 μg/ml PMST, 156 μg/ml benzamidine, 1 μg/ml apotinin, 1 μg/ml leupeptin, 1 μg/ml pepstatin A, and 1 μg/ml antipain was added to the cells that had been stored, and the resulting mixture was placed in a glass homogenizer and homogenized on ice. The cell suspension was centrifuged at 100×g and 4° C. for 5 minutes, and the supernatant was further centrifuged at 100,000×g for 1 hour. Thereafter, the supernatant was dispensed into new tubes as a PDE4D enzyme solution, and stored in an ultra-low-temperature freezer. The protein concentration of the PDE4D enzyme solution was then measured.
# (3) Determination of Dilution Factor of PDE4D Enzyme Solution
# The PDE4D enzyme solution prepared in (2) was diluted 10-, 25-, 50-, 100-, 200-, 400- and 800-fold with 20 mM Tris-HCl (pH 7.4), and the PDE4D activities of the diluted enzyme solutions were measured by the method described in (4) to determine the optimum dilution factor to obtain a PDE4D enzyme solution in which degraded cAMP constituted 10 to 30% of the total cAMP.
# (4) Measurement of PDE4D Inhibitory Activity
# The necessary amount of each test substance was weighed out and dissolved in 100% DMSO to a concentration of 10 mM. The resulting solutions were stored in a freezer as test substance stock solutions. Before the inhibitory activity measurement, the stock solutions were melted, diluted 2-fold with 100% DMSO to a concentration of 5 mM, and further diluted with 100% DMSO to obtain test substance solutions with 10 graded concentrations. Each test substance solution was added to a 1.2 ml tube containing 23 μl of 20 mM Tris-HCl (pH 7.4). […]
# T1 sequence (Q08499 whole entry): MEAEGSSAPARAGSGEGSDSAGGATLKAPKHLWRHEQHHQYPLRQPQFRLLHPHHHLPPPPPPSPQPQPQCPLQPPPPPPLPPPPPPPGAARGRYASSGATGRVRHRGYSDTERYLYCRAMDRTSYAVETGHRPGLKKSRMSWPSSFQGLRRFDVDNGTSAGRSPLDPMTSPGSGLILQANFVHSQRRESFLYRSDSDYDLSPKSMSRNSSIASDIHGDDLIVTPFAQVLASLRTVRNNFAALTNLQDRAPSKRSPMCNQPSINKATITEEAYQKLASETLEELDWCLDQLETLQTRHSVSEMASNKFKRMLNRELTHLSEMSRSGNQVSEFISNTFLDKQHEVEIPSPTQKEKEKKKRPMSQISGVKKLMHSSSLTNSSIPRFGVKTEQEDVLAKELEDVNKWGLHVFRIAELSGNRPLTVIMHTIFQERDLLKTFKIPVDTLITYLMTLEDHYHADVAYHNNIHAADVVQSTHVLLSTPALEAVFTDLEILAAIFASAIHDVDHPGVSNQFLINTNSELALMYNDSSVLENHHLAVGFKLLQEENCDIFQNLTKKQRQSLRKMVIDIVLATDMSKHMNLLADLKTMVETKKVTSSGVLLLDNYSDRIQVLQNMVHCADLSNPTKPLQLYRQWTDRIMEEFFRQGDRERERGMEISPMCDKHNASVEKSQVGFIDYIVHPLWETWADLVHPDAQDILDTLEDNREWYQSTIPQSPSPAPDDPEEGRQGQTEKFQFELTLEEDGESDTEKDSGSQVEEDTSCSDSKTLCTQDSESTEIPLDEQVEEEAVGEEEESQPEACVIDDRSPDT
row,Compound,pIC50
1,"CCOc1ccc(-c2nc(/C=C/C(=O)c3ccccc3OC)cs2)cc1OCC [Example 1, (E)-3-[2-(3,4-diethoxyphenyl)thiazole-4-yl]-1-(2-methoxyphenyl)propenone]",7.63
2,"CCOc1ccc(-c2nc(CCC(=O)c3ncccc3OC)cs2)cc1OCC [Example 88, 3-[2-(3,4-diethoxyphenyl)thiazole-4-yl]-1-(3-methoxypyridine-2-yl)-1-propanone]",9.40
3,CCOc1ccc(-c2nc(CCC(=O)c3ccccc3C(F)(F)F)cs2)cc1OCC [Example 99],7.54
4,CCOc1ccc(-c2nc(CCC(=O)c3ccccc3OCC)cs2)cc1OCC [Example 100],8.64
5,CCOc1ccc(-c2nc(CCC(=O)c3ccc(Cl)cc3OC)cs2)cc1OCC [Example 106],8.24
6,CCOc1ccc(-c2nc(CCC(=O)c3ccccc3C)cs2)cc1OCC [Example 107],8.24
7,"CCOc1ccc(-c2nc(CCCc3ncccc3OC)cs2)cc1OCC.Cl.Cl [Example 238, 2-{3-[2-(3,4-diethoxyphenyl)thiazole-4-yl]propyl}-3-methoxypyridine dihydrochloride]",8.14
8,"CCOc1ccc(-c2nc(CCC(=O)c3ccccc3C#N)cs2)cc1OCC [Example 239, 2-{3-[2-(3,4-diethoxyphenyl)thiazole-4-yl]propionyl}benzonitrile]",8.01

# Test system: not given
# Assay: not given
# Settings: not given
row,Compound,melting point [°C]
1,"CCOc1ccc(-c2nc(/C=C/C(=O)c3ccccc3OC)cs2)cc1OCC [Example 1, (E)-3-[2-(3,4-diethoxyphenyl)thiazole-4-yl]-1-(2-methoxyphenyl)propenone]",130 to 131
2,"CCOc1ccc(-c2nc(CCC(=O)c3ncccc3OC)cs2)cc1OCC [Example 88, 3-[2-(3,4-diethoxyphenyl)thiazole-4-yl]-1-(3-methoxypyridine-2-yl)-1-propanone]",79.2 to 79.7
3,"CCOc1ccc(-c2nc(CCC(=O)c3ccccc3OC)cs2)cc1OCC [Example 89, 3-[2-(3,4-diethoxyphenyl)thiazole-4-yl]-1-(2-methoxyphenyl)-1-propanone]",68.9 to 69.3
4,CCOc1ccc(-c2nc(CCC(=O)c3ccccc3)cs2)cc1OCC [Example 91],113.3 to 113.6
5,CCOc1ccc(-c2nc(CCC(=O)c3ccccc3C(F)(F)F)cs2)cc1OCC [Example 99],91.7 to 93
6,CCOc1ccc(-c2nc(CCC(=O)c3ccccc3OCC)cs2)cc1OCC [Example 100],84.3 to 86.1
7,CCOc1ccc(-c2nc(CCC(=O)c3ccc(Cl)cc3OC)cs2)cc1OCC [Example 106],102.8 to 104.2
8,CCOc1ccc(-c2nc(CCC(=O)c3ccccc3C)cs2)cc1OCC [Example 107],107.1 to 107.4
9,"CCOc1ccc(-c2nc(CCCc3ncccc3OC)cs2)cc1OCC.Cl.Cl [Example 238, 2-{3-[2-(3,4-diethoxyphenyl)thiazole-4-yl]propyl}-3-methoxypyridine dihydrochloride]",169.4 to 171.2
10,"CCOc1ccc(-c2nc(CCC(=O)c3ccccc3C#N)cs2)cc1OCC [Example 239, 2-{3-[2-(3,4-diethoxyphenyl)thiazole-4-yl]propionyl}benzonitrile]",113.7 to 114.8

# Test system: TNF-α production
# Assay: Measurement of TNF-α production inhibitory activity
# Type: cell-based
# Settings: PBMC; concentration that inhibits TNF-α production by 50%; LPS (1 μg/ml)-stimulated human peripheral blood mononuclear cells, 24 hours, ELISA
# Procedure: Measurement of TNF-α Production Inhibitory Activity
# The following tests were performed to evaluate TNF-α production inhibitory activity.
# (1) Separation of Human Peripheral Blood Mononuclear Cells
# A peripheral blood sample was obtained from a healthy adult donor who had signed a written informed consent. Thirty milliliters of the blood sample, which had been heparinized, was dispensed into a Leucosep tube (Greiner) containing 16 ml of a lymphocyte separation solution (Nakarai Chemical, Ltd.) under the filter barrier, and centrifuged at 1000×g for 15 minutes.
# The intermediate layer corresponding to a mononuclear cell fraction was collected in a 50 ml centrifuge tube, and washed twice with a RPMI 1640 medium. After trypan blue staining, the viable count was determined and adjusted to 2×10^6 cells/ml with RPMI 1640 medium.
# (2) Induction of TNF-α Production
# E. coli (Serotype 055:B5)-derived LPS, which had been dissolved in a RPMI 1640 medium to a concentration of 5 mg/ml, sterilized by filtration and stored in a freezer, was melted and diluted with a RPMI 1640 medium to 10 μg/ml. The test substances were dissolved in DMSO to obtain solutions with a concentration of […] the final use concentration. One microliter of each of the graded concentration test substance solutions, 149 μl of RPMI 1640 medium, 50 μl of LPS solution (final concentration: 1 μg/ml), 50 μl of fetal bovine serum, and […] of the peripheral blood mononuclear cell suspension were dispensed to each well of a 48-well plate and incubated at 37° C. for 24 hours.
# (3) Measurement of TNF-α Concentration
# After completion of the incubation, the culture supernatant was collected from each well, and the TNF-α concentration in the supernatant was measured by ELISA method (Human TNF-α Eli-pair, Diaclone).
row,Compound,pIC50
1,"CCOc1ccc(-c2nc(/C=C/C(=O)c3ccccc3OC)cs2)cc1OCC [Example 1, (E)-3-[2-(3,4-diethoxyphenyl)thiazole-4-yl]-1-(2-methoxyphenyl)propenone]",8.10
2,"CCOc1ccc(-c2nc(CCC(=O)c3ccccc3OC)cs2)cc1OCC [Example 89, 3-[2-(3,4-diethoxyphenyl)thiazole-4-yl]-1-(2-methoxyphenyl)-1-propanone]",8.15
3,CCOc1ccc(-c2nc(CCC(=O)c3ccccc3)cs2)cc1OCC [Example 91],6.27
